Laboratory results: ChEMBL document CHEMBL3817845, “Development of CNS multi-receptor ligands: Modification of known D2 pharmacophores” (Bioorg Med Chem, 2016)

How the values were obtained:
D(3) dopamine receptor [1] = biological target: T1, D(3) dopamine receptor (Homo sapiens, UniProt P35462); experiment: Displacement of [125I]-IABN from human recombinant dopamine D3 receptor expressed in HEK293 cell membrane incubated for 60 mins filtration binding assay
[2] = biological target: T2, 5-hydroxytryptamine receptor 2A (Homo sapiens, UniProt P28223); experiment: Binding affinity to 5HT2A receptor (unknown origin)
D(2) dopamine receptor = D(2) dopamine receptor (Homo sapiens, UniProt P14416); experiment: Displacement of [3H]N-methylspiperone from human recombinant dopamine D2 receptor incubated for […] by microbeta scintillation counting method
D(3) dopamine receptor [3] = biological target: T1, D(3) dopamine receptor; experiment: Displacement of [3H]N-methylspiperone from human recombinant dopamine D3 receptor incubated for […] by microbeta scintillation counting method
D(4) dopamine receptor = biological target: T3, D(4) dopamine receptor (Homo sapiens, UniProt P21917); experiment: Displacement of [3H]N-methylspiperone from human recombinant dopamine D4 receptor incubated for […] by microbeta scintillation counting method
T3 sequence (P21917 whole entry): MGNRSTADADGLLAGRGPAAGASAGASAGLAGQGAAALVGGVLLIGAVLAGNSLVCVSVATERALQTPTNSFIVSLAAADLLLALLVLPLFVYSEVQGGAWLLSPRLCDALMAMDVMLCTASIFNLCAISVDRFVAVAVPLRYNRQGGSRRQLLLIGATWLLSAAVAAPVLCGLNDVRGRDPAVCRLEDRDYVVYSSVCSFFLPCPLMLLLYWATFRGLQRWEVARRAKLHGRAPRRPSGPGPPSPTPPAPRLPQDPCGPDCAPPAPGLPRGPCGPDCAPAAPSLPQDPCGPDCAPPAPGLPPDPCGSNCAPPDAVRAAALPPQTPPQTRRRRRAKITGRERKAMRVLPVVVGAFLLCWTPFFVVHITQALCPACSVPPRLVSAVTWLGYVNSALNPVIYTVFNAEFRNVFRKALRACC

[4] = biological target: T4, 5-hydroxytryptamine receptor 1A (Homo sapiens, UniProt P08908); experiment: (§1) Displacement of [3H]8-OH-DPAT from human recombinant 5HT1A receptor incubated for […] by microbeta scintillation counting method
T4 sequence (P08908 whole entry): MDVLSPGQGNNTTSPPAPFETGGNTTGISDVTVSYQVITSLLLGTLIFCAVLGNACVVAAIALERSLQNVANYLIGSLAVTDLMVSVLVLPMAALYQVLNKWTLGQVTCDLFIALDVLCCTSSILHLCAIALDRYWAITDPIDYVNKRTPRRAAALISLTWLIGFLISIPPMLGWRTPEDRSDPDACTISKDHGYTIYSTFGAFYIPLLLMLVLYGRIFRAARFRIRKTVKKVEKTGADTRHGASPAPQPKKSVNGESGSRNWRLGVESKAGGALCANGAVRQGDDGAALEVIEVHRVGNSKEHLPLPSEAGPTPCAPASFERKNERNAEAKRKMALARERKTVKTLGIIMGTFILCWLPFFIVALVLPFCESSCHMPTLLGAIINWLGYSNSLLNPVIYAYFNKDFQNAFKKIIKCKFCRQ

[5] = biological target: T2, 5-hydroxytryptamine receptor 2A; experiment: Displacement of [3H]Ketanserin from human recombinant 5HT2A receptor incubated for […] by microbeta scintillation counting method
[6] = biological target: 5-hydroxytryptamine receptor 7 (Homo sapiens, UniProt P34969); experiment: Displacement of [3H]LSD from human recombinant 5HT7 receptor incubated for […] by microbeta scintillation counting method
[7] = biological target: 5-hydroxytryptamine receptor 2B (Homo sapiens, UniProt P41595); experiment: Displacement of [3H]LSD from human recombinant 5HT2B receptor incubated for […] by microbeta scintillation counting method
[8] = biological target: T5, 5-hydroxytryptamine receptor 2C (5HT2C) (Homo sapiens, UniProt P28335); experiment: (§2) Displacement of [3H]Mesulergine from human recombinant 5HT2C receptor incubated for […] by microbeta scintillation counting method; conditions: human, recombinant 5HT2C receptor, probe [3H]Mesulergine
T5 sequence (P28335 whole entry): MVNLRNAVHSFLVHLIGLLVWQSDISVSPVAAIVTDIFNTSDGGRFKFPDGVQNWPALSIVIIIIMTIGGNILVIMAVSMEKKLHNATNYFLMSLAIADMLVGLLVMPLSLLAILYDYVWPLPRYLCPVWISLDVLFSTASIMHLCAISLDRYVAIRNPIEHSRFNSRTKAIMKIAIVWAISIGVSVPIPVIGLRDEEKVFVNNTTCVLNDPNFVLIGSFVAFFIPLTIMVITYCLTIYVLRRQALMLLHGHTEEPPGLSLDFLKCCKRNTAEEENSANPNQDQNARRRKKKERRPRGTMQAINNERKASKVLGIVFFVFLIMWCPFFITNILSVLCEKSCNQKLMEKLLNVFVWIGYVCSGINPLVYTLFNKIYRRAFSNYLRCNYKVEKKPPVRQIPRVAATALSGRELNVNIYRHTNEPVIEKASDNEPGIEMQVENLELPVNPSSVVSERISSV

[9] = biological target: Sodium-dependent serotonin transporter (Homo sapiens, UniProt P31645); experiment: Displacement of [3H]Citalopram from human recombinant SERT incubated for […] by microbeta scintillation counting method
Histamine H1 receptor = Histamine H1 receptor (Homo sapiens, UniProt P35367); experiment: Displacement of [3H]Pyrilamine from human recombinant histamine H1 receptor incubated for […] by microbeta scintillation counting method
[10] = Lipophilicity, log P of the compound; assay type: physicochemical; conditions: octanol/water
[11] = biological target: T6, 5-hydroxytryptamine receptor 1A (Homo sapiens) (UniProt P08908); experiment: as §1
T6 sequence (whole entry): T4 sequence (P08908 whole entry)

[12] = biological target: T7, 5-hydroxytryptamine receptor 2C (Homo sapiens, UniProt P28335); experiment: as §2
T7 sequence (P28335 whole entry): T5 sequence (P28335 whole entry)

T1 sequence (P35462 whole entry): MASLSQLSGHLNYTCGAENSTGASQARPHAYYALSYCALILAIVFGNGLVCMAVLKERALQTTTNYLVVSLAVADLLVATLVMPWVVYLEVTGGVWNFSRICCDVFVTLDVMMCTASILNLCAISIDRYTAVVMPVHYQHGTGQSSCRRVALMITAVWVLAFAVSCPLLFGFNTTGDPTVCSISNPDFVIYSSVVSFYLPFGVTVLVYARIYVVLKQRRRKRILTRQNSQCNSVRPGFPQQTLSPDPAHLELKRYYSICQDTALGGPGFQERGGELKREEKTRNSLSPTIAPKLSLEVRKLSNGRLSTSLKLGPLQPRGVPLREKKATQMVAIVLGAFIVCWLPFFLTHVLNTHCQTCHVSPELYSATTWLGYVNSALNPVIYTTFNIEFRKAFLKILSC
D(2) dopamine receptor, sequence (P14416 whole entry): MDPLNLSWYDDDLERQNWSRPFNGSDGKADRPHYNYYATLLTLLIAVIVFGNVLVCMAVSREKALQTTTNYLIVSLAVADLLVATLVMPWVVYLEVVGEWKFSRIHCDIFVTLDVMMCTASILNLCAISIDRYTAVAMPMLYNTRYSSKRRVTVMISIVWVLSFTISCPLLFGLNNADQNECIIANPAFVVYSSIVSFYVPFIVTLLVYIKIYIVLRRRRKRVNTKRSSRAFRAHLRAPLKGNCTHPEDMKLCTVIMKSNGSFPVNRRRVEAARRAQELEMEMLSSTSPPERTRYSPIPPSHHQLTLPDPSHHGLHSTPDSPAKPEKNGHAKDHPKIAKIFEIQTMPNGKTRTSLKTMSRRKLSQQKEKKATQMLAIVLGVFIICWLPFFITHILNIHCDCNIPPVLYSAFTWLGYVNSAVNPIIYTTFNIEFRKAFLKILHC
T2 sequence (P28223 whole entry): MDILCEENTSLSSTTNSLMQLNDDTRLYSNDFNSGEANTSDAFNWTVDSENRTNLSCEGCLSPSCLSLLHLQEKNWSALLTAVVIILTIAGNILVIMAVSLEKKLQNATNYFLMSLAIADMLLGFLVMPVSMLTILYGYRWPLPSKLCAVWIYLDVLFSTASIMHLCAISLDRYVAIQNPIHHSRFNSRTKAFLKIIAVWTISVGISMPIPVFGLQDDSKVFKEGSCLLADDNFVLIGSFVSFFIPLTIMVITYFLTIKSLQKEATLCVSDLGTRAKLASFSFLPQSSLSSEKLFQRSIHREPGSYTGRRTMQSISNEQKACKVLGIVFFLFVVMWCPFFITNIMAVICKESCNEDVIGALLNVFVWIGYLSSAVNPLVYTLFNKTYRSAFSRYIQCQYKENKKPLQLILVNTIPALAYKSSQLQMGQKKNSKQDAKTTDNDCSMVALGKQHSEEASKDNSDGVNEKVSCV
5-hydroxytryptamine receptor 7, sequence (P34969 whole entry): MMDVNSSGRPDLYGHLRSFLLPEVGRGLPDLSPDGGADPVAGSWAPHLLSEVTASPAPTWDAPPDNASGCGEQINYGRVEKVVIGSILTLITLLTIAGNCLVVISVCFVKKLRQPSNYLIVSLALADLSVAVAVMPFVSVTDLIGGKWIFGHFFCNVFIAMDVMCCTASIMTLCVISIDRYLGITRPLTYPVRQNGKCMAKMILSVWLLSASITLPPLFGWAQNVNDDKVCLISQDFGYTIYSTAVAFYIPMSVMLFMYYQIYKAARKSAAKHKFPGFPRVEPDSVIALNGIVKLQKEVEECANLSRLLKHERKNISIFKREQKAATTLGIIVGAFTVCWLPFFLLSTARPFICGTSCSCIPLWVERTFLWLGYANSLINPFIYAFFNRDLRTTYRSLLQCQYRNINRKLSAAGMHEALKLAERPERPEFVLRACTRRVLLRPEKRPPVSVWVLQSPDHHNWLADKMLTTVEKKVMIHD
5-hydroxytryptamine receptor 2B, sequence (P41595 whole entry): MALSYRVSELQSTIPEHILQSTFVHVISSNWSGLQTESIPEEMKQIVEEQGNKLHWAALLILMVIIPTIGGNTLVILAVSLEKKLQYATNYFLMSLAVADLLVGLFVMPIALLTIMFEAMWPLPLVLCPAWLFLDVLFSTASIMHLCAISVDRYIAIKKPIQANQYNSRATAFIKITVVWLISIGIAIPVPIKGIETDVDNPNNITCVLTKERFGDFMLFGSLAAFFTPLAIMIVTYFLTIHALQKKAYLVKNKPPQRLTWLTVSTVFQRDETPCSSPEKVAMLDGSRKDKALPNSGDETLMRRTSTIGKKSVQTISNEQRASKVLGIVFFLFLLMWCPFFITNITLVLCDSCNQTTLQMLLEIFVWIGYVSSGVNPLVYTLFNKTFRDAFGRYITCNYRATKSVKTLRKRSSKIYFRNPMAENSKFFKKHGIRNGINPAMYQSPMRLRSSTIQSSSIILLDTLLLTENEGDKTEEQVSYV
Histamine H1 receptor, sequence (P35367 whole entry): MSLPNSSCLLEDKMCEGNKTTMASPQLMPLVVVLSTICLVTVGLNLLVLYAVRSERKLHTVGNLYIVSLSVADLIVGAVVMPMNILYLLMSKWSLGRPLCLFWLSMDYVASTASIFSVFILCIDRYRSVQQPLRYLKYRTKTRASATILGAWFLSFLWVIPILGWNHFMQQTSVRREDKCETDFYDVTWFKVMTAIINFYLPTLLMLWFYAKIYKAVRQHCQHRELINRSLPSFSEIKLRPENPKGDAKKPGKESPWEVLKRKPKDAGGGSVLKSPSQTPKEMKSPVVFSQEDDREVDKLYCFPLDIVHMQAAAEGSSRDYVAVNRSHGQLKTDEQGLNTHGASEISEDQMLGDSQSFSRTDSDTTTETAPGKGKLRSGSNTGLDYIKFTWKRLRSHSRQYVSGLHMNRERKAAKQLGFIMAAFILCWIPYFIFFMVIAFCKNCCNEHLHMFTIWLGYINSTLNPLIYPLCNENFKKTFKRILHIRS

| Compound | Ki (D(2) dopamine receptor) [nM] | Ki (D(3) dopamine receptor [3]) [nM] | Ki (D(4) dopamine receptor) [nM] | Ki [4] [nM] | Ki [5] [nM] | Ki [6] [nM] | Ki [7] [nM] | inhibition at […] [8] [%] | Ki (Histamine H1 receptor; read-out: Ki) [nM] | other results |
| --- | --- | --- | --- | --- | --- | --- | --- | --- | --- | --- |
| O=C(CCCN1CCC(n2c(O)nc3ccccc32)CC1)c1ccc(F)cc1 [BENPERIDOL] |  |  |  |  |  |  |  |  |  | Ki (D(3) dopamine receptor [1]): 0.29 nM; Ki [2]: 1.2 nM |
| O=C1NCN(c2ccccc2)C12CCN(CCCCc1nc3ccccc3s1)CC2 | 24 | 32 | 132 | 195 | > 10000 | 626 | 122 | < 50 | 504 | inhibition [9]: < 50% |
| O=C1NCN(c2ccccc2)C12CCN(CCCCc1c[nH]c3ccccc13)CC2 |  | 31 | 1.6 | 376 |  | > 10000 | 202 | < 50 | 273 | Ki ([9]; read-out: Ki): 10 nM; Ki ([9]; read-out: pKi (converted)): 4.68 nM; logP [10]: 3.52 |
| O=C(CCCCN1CCN(C(c2ccc(F)cc2)c2ccc(F)cc2)CC1)c1nc2ccccc2s1 | 159 | 233 | 1220 |  | 1080 | 562 |  |  |  | inhibition [11]: < 50% |
| O=C(CCCCN1CCC2(CC1)C(=O)NCN2c1ccccc1)c1nc2ccccc2s1 |  | 18 | 162 |  |  |  |  | < 50 |  |  |
| O=C(CCCN1CCC(O)(c2ccc(Cl)cc2)CC1)c1ccc(F)cc1 [HALOPERIDOL] |  |  |  |  |  |  |  |  |  | logP [10]: 3.49 |
| Cl.O=C(CCCCN1C2CCC1CC(O)(c1ccc(Cl)cc1)C2)c1nc2ccccc2s1 (stereo not drawn) |  |  |  |  |  | 80 | 758 | < 50 | 1030 | pKi (D(2) dopamine receptor): 6.74; inhibition [11]: < 50%; inhibition [5]: < 50%; Ki ([9]; read-out: Ki): 54 nM; Ki ([9]; read-out: pKi (converted)): 4.68 nM |
| O=C(CCCN1CCC2(CC1)C(=O)NCN2c1ccccc1)c1ccc(F)cc1 [SPIPERONE] |  |  |  |  |  |  |  |  |  | logP [10]: 2.78 |
| OC1(c2ccc(Cl)cc2)CCN(CCCc2nc3ccccc3s2)CC1 | 763 | 28 | 163 | 34 | 168 | 189 |  |  |  |  |
| OC1(c2ccc(Cl)cc2)CC2CCC(C1)N2CCCCc1nc2ccccc2s1 (stereo not drawn) |  |  |  |  |  | 1010 | 342 |  |  | Ki ([9]; read-out: Ki): 180 nM |
| O=C(CCCCN1CCC(n2c(=O)[nH]c3cc(Cl)ccc32)CC1)c1nc2ccccc2s1 |  | 64 |  |  |  |  |  |  |  |  |
| OC1(c2ccc(Cl)cc2)CCN(CCCCc2nc3ccccc3s2)CC1 |  | 291 |  |  |  |  |  |  |  |  |
| O=C1NCN(c2ccccc2)C12CCN(CCCCc1nc3ccccc3o1)CC2 | 10 | 21 | 118 | 382 |  | 1510 | 905 | < 50 | 535 | inhibition [5]: < 50%; inhibition [9]: < 50% |
| Fc1ccc(C(c2ccc(F)cc2)N2CCN(CCCCc3nc4ccccc4s3)CC2)cc1 | 195 | 33 | 68 |  | 519 | 778 |  |  |  | inhibition [11]: < 50% |
| O=C1NCN(c2ccccc2)C12CCN(CCCCc1nc3cc(Cl)ccc3s1)CC2 | 18 | 499 |  | 102 |  |  | 36 |  | 263 | Ki [12]: 614 nM; Ki ([9]; read-out: Ki): 3060 nM; Ki (Histamine H1 receptor; read-out: pKi (converted)): 275 nM |
| OC1(c2ccc(Cl)cc2)CCN(CCCCc2nc3ccccc3o2)CC1 | 438 | 942 | 229 | 3150 | 5970 |  |  |  |  | inhibition [6]: < 50% |
